According to ChEMBL document CHEMBL1255561, “A new NF-κB inhibitor based on the amino-epoxyquinol core of DHMEQ” (Bioorg Med Chem Lett, 2010):
Activity calls are given as the source filed them. The calls are words filed in the database; no cut-off is given here.

Columns and labels:
[1] = target: Transcription factor p65 (Homo sapiens) (UniProt Q04206); test: Binding affinity to recombinant NF-kappaB transcription factor p65 subunit (1-325) at 4 equiv mol concentration after 1 hr by MALDI-TOF MS analysis
Transcription factor p65 (Homo sapiens), sequence (Q04206 whole entry): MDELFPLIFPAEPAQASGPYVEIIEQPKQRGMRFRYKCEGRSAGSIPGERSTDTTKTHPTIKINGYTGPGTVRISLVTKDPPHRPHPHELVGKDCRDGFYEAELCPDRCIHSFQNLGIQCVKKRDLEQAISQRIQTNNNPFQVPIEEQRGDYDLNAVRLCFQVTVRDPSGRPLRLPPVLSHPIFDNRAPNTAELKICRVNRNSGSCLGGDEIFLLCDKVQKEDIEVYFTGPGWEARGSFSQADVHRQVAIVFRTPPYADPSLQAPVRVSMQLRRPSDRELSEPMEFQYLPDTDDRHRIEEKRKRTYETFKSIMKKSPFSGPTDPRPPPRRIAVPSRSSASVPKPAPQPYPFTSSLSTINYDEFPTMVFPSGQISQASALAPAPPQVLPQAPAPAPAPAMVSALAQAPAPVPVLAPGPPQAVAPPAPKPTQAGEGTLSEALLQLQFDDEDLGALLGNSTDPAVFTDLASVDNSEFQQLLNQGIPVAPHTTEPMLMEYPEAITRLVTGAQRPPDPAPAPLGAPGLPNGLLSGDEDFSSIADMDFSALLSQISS

RAW264.7 [2] = test: Inhibition of LPS-induced iNOS expression in mouse RAW264.7 cells at up to 30 ug/ml treated 1 hr before LPS challenge measured after 6 hrs by immunoblotting; assay type: functional, cell-based
RAW264.7 [3] = test: Cytotoxicity in mouse RAW264.7 cells at 30 ug/ml after 24 hrs by MTT assay; assay type: cell-based; details: raw264.7, 24 h
RAW264.7 [4] = test: Inhibition of LPS-induced nitric oxide production in mouse RAW264.7 cells treated 1 hr before LPS challenge measured after 24 hrs by Griess reaction; assay type: functional, cell-based
RAW264.7 [5] = test: Inhibition of LPS-induced NF-kappaB activation in mouse RAW264.7 cells at up to 30 ug/ml after 30 mins by electrophoretic mobility shift assay; assay type: cell-based

SMILES	Activity [1]	inhibition (RAW264.7 [2])	Activity (RAW264.7 [3])	inhibition (RAW264.7 [4])	inhibition (RAW264.7 [5])
C=CCOC(=O)NC1=CC(=O)[C@H]2O[C@H]2[C@@H]1O (relative stereo)	inactive	Active	Toxic	Dose-dependent effect	Active
C=CCOC(=O)NC1=CC(=O)[C@H]2O[C@H]2[C@H]1O (relative stereo)	Active	Active			
